Laboratory results from US10576102B2, “KOC1-derived peptide and vaccine including same” (ONCOTHERAPY SCIENCE, INC., priority 2014, dated 2020).
“Also recorded” adds a separate entry of the source.

Key:
peptide-pulsed C1R-A11 [1] = test: IFN-gamma ELISA of CTL lines and CTL clones (HLA-A*1101); assay type: cell-based, human
Procedure: (§1) CTLs were propagated in culture using methods similar to those disclosed by Riddell et al. (Walter E A et al., N Engl J Med 1995, 333(16): 1038-44; Riddell S R et al., Nat Med 1996, 2(2): 216-23). The CTLs were co-cultured in a total of 25 ml AIM-V medium containing 5% AS (AIM-V/5% AS) and 40 ng/ml anti-CD3 antibody with two types of Mitomycin C-treated human B lymphoblastoid cell lines at 5×10^6 cells/flask. One day after beginning of the culturing, 120 IU/ml IL-2 was added to the culture. On days 5, 8 and 11, a fresh AIM-V/5% AS medium containing 30 IU/ml IL-2 was added to the culture (Tanaka H et al., Br J Cancer 2001, 84(1): 94-9; Umano Y et al., Br J Cancer 2001, 84(8): 1052-7; Uchida N et al., Clin Cancer Res 2004, 10(24): 8577-86; Suda T et al., Cancer Sci 2006, 97(5): 411-9; Watanabe T et al., Cancer Sci 2005, 96(8): 498-506).
Dilution of CTLs was carried out to make 0.3, 1 and 3 cells/well in 96 round-bottomed microtiter plates (Nalge Nunc International). The CTLs were co-cultured with two types of Mitomycin C-treated human B lymphoblastoid cell lines at 1×10^4 cells/well in a total of 150 micro-1/well AIM-V/5% AS medium with 30 ng/ml anti-CD3 antibody and 125 IU/ml IL-2. Ten days later, IL-2 was added to the medium at 50 micro-1/well to reach a final concentration of 125 IU/ml. On day 14, the CTL activity was tested, and the CTL clones were propagated using the same method as described above (Uchida N et al., Clin Cancer Res 2004, 10(24): 8577-86; Suda T et al., Cancer Sci 2006, 97(5): 411-9; Watanabe T et al., Cancer Sci 2005, 96(8): 498-506).
(§2) Specifically, peptide-pulsed C1R-A11 (1×10^4 cells/well) was prepared as the stimulator cell. The induced CTLs, i.e., CTL lines and CTL clones, were used as the responder cell. The IFN-gamma ELISPOT assay and IFN-gamma ELISA were performed according to the manufacturer's manual.

[2] = tested on: COS7 cells transfected with both KOC1 and HLA-A*1101; test: Specific CTL activity against target cells expressing KOC1 and HLA-A*1101; assay type: cell-based, African green monkey; settings: listed as KOC1-A11-10-14
Procedure: as §2
A cDNA encoding the open-reading frame of a target gene or HLA-A*1101 was amplified by PCR. The PCR-amplified product was cloned into an expression vector. Either or both of the target gene-expressing vector and the HLA-A*1101-expressing vector were transfected into […], which is a cell line negative for the target gene and HLA, using Lipofectamine 2000 (Invitrogen) following the manufacturer's recommended protocol. Two days after transfection, the transfected cells were harvested using versene (Invitrogen), and used as the target cell for CTL activity assay (5×10^4 cells/well).
The CTL clone established against KOC1-A11-10-14 (SEQ ID NO: 32) was investigated for its ability to recognize target cells expressing KOC1 and the HLA-A*1101 molecule. COS7 cells transfected with both full-length KOC1 and the HLA-A*1101 gene (a specific model of target cells expressing KOC1 and the HLA-A*1101 gene) were prepared as the target cell. COS7 cells transfected with either full-length KOC1 or HLA-A*1101 were prepared as the control.

peptide-pulsed C1R-A11 [3] = test: In vitro CTL induction, IFN-gamma ELISPOT assay (HLA-A*1101); assay type: cell-based, human; settings: CTLs induced with peptide-pulsed DCs from HLA-A*1101-positive volunteers; day 21; vs peptide-pulsed C1R-A11, compared with unpulsed control
Procedure: (§3) C1R (C1R-A11) that stably expresses HLA-A*1101 was used as a stimulator cell. A cDNA encoding the open-reading frame of HLA-A*1101 was amplified by PCR and cloned into an expression vector. C1R cells were transfected with the expression vector, and then selected using G418 (Invitrogen) for two weeks. The G418-selected cells were seeded into wells containing G418-added culture medium in a 96-well plate, and further cultured for 30 days. The exogenous HLA-A*1101 expression in C1R cells was verified by flow cytometric analysis.
(§4) Monocyte-derived dendritic cells (DCs) were used as the antigen-presenting cell to induce a cytotoxic T lymphocyte (CTL) response against peptides presented on human leukocyte antigens (HLAs). As described in the other sections, DCs were generated in vitro (Nakahara S et al., Cancer Res 2003, 63(14): 4112-8). Specifically, peripheral-blood mononuclear cells isolated from healthy volunteers (HLA-A*1101-positive) with the Ficoll-Paque plus solution (Pharmacia) were separated by attaching to plastic tissue culture dishes (Becton Dickinson) and concentrated as a monocyte fraction. The monocyte-concentrated population was cultured in the presence of 1000 IU/ml granulocyte macrophage colony-stimulating factor (R&D System) and 1000 IU/ml interleukin(IL)-4 (R&D System) in an AIM-V medium (Invitrogen) containing 2% heat-inactivated autologous serum (AS). After seven days of culturing, the cytokine-induced DCs were pulsed with 20 micro-g/ml each of the synthesized peptides in an AIM-V medium at 37 degrees C. for three hours in the presence of 3 micro-g/ml beta 2-microglobulin. The generated cells appeared to express on their cell surface DC-associated molecules such as CD80, CD83, CD86 and HLA class II (data not shown). Next, these peptide-pulsed DCs were inactivated, by X-ray irradiation (20 Gy), and mixed in a 1:20 ratio with autologous CD8^+ T cells obtained by positive selection using the CD8 Positive Isolation Kit (Dynal). These culture products were seeded in a 48-well plate (Corning). Each well was made to contain 1.5×10^4 peptide-pulsed DCs, 3×10^5 CD8^+ T cells and 10 ng/ml IL-7 (R&D System) in 0.5 ml of the AIM-V/2% AS medium. Three days later, these culture products were added with a final concentration of 20 IU/ml IL-2 (CHIRON). On day 7 and day 14, T cells were further stimulated with peptide-pulsed autologous DCs. The DCs were prepared every time by the same method as above. On day 21, after the third peptide stimulation, CTLs were examined against the peptide-pulsed C1R-A11 by a human interferon (IFN)-gamma enzyme-linked immunospot (ELISPOT) assay (Tanaka H et al., Br J Cancer 2001, 84(1): 94-9; Umano Y et al., Br J Cancer 2001, 84(8): 1052-7; Uchida N et al., Clin Cancer Res 2004, 10(24): 8577-86; Suda T et al., Cancer Sci 2006, 97(5): 411-9; Watanabe T et al., Cancer Sci 2005, 96(8): 498-506).
as §2

peptide-pulsed C1R-A01 [4] = test: IFN-gamma ELISA of CTL lines and CTL clone (HLA-A*0101); assay type: cell-based, human; settings: CTL lines; target cells pulsed with the peptide vs not pulsed; C1R-A01
Procedure: as §1, with “AS” for “AS (AIM-V/5% AS)”, “cells.” for “cells/flask.”
CTLs were seeded to make 1 or 10 cells/well in 96 round-bottomed microtiter plates (Nalge Nunc International). The CTLs were co-cultured with two types of Mitomycin C-treated human B lymphoblastoid cell lines at 1×10^4 cells in a total of 150 micro-1/well 5% AS-containing AIM-V medium with 30 ng/ml anti-CD3 antibody and 125 IU/ml IL-2. Ten days later, 50 micro-1 of IL-2 was added to the medium to reach a final IL-2 concentration of 125 IU/ml. On day 14, the CTL activity was tested, and the CTL clones were propagated using the same method as described above (Uchida N et al., Clin Cancer Res 2004, 10(24): 8577-86; Suda T et al., Cancer Sci 2006, 97(5): 411-9; Watanabe T et al., Cancer Sci 2005, 96(8): 498-506).
(§5) Specifically, peptide-pulsed C1R-A01 (1×10^4 cells/well) was prepared as the stimulator cell. The induced CTLs, i.e., CTL lines and CTL clones, were used as the responder cell. The IFN-gamma ELISPOT assay and IFN-gamma ELISA were performed according to the manufacturer's manual.

peptide-pulsed C1R-A01 [5] = test: In vitro CTL induction, IFN-gamma ELISPOT assay (HLA-A*0101); assay type: cell-based, human; settings: CTLs induced with peptide-pulsed DCs from HLA-A*0101-positive volunteers; day 21; vs peptide-pulsed C1R-A01, compared with unpulsed control
Procedure: as §3, with “(C1R-A01)” for “(C1R-A11)”, “HLA-A*0101” for “HLA-A*1101”
as §4, with “(HLA-A*0101-positive)” for “(HLA-A*1101-positive)”, “2-microglobulin.” for “2-microglobulin. The generated cells appeared to express on their cell surface DC-associated molecules such as CD80, CD83, CD86 and HLA class II (data not shown).”, “inactivated” for “inactivated,”, “CTL activities” for “CTLs”, “C1R-A01 cells” for “C1R-A11 by a human interferon (IFN)-gamma enzyme-linked immunospot (ELISPOT) assay”
as §5

| Sequence | IFN-gamma production of CTL clones, ELISA (peptide-pulsed C1R-A11 [1]; CTL clones by limiting dilution, peptide-pulsed C1R-A11, listed as KOC1-A11-10-14) | IFN-gamma production of CTL lines, ELISA (peptide-pulsed C1R-A11 [1]; CTL lines, target cells pulsed with the peptide vs not pulsed, C1R-A11) | specific CTL activity of CTL clone against target cells expressing KOC1 and HLA-A*1101 ([2]; COS7 transfected with both full-length KOC1 and HLA-A*1101) | specific CTL activity of CTL clone against control cells ([2]; COS7 transfected with either full-length KOC1 or HLA-A*1101) | peptide-specific CTL activity (IFN-gamma production), ELISPOT (peptide-pulsed C1R-A11 [3]) | IFN-gamma production of CTL lines, ELISA (peptide-pulsed C1R-A01 [4]) | peptide-specific CTL activity (IFN-gamma production), ELISPOT (peptide-pulsed C1R-A01 [5]) |
| --- | --- | --- | --- | --- | --- | --- | --- |
| APSDLESIFK (a peptide derived from KOC1) [SEQ ID NO: 32] | Potent IFN-gamma production | potent IFN-gamma production | specific CTL activity; also recorded: potent CTL activity | a significant specific CTL activity was not shown; also recorded: a significant specific CTL activity was not detected | potent IFN-gamma production |  |  |
| ETAVVNVTY (a peptide derived from KOC1) [SEQ ID NO: 87] |  |  |  |  |  | potent IFN-gamma production | potent IFN-gamma production |
